The source of these data is ChEMBL document CHEMBL3627608, “Crystal structures of human RIP2 kinase catalytic domain complexed with ATP-competitive inhibitors: Foundations for understanding inhibitor selectivity” (Bioorg Med Chem, 2015).

The target of test [1] is T1, Protein kinase C epsilon type (Homo sapiens) (UniProt Q02156).
T1 sequence (whole entry): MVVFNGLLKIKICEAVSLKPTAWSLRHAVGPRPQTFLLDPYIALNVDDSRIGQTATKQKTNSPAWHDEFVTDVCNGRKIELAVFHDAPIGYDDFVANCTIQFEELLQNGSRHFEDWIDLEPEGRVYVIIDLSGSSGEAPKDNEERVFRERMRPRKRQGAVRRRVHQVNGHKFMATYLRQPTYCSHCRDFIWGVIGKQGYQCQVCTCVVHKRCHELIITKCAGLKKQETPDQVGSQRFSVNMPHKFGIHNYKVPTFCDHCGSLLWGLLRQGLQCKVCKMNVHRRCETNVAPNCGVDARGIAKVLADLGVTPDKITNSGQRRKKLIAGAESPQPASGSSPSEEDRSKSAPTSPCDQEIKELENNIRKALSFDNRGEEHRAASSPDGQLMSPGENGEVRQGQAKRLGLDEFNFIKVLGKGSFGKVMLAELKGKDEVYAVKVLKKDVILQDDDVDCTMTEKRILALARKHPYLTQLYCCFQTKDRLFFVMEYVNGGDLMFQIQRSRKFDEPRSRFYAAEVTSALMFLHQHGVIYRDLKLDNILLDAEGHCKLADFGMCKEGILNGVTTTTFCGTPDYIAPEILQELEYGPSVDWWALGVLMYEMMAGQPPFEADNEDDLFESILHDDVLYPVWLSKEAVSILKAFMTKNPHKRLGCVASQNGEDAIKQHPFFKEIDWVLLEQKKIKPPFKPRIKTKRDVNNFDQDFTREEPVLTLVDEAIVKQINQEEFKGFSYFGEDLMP
The experiment in a line: Inhibition of PKCepsilon (unknown origin) at 10 uM after 120 mins P33 radiolabeled kinase activity assay.

In test [2] the target is Mast/stem cell growth factor receptor Kit (Homo sapiens) (UniProt P10721). Description: Inhibition of c-Kit (unknown origin) at 10 uM after 120 mins P33 radiolabeled kinase activity assay.
The target in test [3] is T2, Mitogen-activated protein kinase kinase kinase kinase 3 (Homo sapiens) (UniProt Q8IVH8).
T2 sequence (whole entry): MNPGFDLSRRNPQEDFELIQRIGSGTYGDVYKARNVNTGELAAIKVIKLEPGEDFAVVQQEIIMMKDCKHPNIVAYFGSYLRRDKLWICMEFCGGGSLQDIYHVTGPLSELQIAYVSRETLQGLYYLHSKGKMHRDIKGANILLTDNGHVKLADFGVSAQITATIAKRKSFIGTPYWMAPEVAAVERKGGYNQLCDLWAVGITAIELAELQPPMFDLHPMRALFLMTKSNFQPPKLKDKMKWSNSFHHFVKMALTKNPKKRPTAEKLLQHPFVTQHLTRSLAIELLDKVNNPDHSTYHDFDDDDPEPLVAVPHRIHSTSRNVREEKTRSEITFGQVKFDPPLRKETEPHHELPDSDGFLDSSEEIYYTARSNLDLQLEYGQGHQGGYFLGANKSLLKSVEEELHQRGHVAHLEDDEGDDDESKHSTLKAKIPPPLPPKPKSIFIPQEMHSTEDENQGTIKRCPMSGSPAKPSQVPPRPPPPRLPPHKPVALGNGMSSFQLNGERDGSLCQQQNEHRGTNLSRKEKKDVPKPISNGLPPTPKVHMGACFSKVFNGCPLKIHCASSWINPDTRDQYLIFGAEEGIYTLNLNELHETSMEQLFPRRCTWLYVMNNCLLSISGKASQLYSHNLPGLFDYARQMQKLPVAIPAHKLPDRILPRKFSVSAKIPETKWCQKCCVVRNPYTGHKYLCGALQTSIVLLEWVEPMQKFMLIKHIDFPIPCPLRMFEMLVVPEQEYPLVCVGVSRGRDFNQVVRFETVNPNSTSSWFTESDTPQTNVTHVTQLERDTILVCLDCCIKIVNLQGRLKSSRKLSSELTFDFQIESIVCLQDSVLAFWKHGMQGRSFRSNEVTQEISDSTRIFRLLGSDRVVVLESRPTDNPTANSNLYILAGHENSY
The experiment in a line: Inhibition of GLK (unknown origin) at 10 uM after 120 mins P33 radiolabeled kinase activity assay.

The target of test [4] is T3, Calcium/calmodulin-dependent protein kinase type IV (Homo sapiens) (UniProt Q16566).
T3 sequence (whole entry): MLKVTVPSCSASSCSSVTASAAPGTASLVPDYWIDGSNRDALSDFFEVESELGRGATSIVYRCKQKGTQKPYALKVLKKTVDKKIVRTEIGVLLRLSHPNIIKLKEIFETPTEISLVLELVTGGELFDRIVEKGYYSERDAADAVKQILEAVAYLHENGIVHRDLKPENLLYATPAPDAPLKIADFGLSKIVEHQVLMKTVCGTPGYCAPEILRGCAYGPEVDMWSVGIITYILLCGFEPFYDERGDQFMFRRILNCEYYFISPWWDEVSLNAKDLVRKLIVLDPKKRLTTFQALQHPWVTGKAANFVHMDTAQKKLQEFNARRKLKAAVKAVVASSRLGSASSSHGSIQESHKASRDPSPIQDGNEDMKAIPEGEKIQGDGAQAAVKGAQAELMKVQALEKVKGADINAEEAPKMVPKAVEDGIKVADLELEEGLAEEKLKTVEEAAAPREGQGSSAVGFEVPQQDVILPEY
The experiment in a line: Inhibition of CAMK4 (unknown origin) at 10 uM after 120 mins P33 radiolabeled kinase activity assay.

Test [5] concerns the target T4, Serine/threonine-protein kinase BRSK1 (Homo sapiens) (UniProt Q8TDC3).
T4 sequence (whole entry): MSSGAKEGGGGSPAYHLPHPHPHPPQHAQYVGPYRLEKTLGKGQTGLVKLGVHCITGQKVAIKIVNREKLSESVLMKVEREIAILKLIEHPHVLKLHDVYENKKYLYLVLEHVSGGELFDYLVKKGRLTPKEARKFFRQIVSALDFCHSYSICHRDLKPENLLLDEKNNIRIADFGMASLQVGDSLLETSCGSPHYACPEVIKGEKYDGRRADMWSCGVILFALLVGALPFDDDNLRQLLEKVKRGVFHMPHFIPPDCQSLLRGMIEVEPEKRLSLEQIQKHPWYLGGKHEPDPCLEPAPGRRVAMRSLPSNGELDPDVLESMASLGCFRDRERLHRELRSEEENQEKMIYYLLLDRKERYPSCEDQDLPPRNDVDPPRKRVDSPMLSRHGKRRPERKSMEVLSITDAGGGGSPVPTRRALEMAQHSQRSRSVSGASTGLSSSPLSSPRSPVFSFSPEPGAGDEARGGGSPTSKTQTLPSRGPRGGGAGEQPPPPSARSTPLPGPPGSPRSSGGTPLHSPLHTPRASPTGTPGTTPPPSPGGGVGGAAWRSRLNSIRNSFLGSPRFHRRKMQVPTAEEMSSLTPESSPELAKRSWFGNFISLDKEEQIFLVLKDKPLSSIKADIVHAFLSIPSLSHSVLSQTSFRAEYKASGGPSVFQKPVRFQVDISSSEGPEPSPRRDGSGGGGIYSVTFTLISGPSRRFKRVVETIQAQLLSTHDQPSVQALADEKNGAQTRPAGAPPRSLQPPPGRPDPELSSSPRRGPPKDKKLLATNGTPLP
Description: Inhibition of BRSK1 (unknown origin) at 10 uM after 120 mins P33 radiolabeled kinase activity assay.

Each structure is given as a SMILES string.

Mast/stem cell growth factor receptor Kit (Homo sapiens), sequence (P10721 whole entry): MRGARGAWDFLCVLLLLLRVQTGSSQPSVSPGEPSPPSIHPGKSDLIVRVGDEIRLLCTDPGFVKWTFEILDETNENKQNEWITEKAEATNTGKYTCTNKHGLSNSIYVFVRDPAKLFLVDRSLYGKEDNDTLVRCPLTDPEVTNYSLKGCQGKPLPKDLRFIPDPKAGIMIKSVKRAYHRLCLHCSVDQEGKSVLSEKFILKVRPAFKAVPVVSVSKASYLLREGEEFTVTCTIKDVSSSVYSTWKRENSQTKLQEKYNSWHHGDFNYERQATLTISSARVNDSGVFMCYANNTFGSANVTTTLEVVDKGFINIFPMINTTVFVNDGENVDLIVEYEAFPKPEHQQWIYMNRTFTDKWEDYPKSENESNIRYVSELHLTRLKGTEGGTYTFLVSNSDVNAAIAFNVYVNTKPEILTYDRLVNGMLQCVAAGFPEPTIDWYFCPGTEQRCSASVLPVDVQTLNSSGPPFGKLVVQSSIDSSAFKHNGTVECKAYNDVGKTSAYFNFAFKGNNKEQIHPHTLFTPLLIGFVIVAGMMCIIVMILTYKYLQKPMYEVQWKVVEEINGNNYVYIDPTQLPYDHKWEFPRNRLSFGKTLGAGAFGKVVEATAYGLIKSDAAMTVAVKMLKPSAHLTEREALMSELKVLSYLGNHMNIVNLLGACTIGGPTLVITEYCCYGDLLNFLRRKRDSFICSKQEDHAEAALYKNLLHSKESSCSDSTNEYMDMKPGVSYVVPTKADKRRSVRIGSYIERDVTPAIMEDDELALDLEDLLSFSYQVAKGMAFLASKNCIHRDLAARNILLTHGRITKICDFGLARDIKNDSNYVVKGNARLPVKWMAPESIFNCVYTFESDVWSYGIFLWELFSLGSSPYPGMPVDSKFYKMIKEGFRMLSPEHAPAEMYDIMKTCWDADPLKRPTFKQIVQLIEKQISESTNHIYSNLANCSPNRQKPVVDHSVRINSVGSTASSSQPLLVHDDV

A word on the inhibition: it is the relative decrease from the control value, in per cent. Turning to `CS(=O)(=O)c1cccc(Nc2nccc(-c3sc(N4CCOCC4)nc3-c3cccc(NS(=O)(=O)c4c(F)cccc4F)c3)n2)c1`, the inhibition in test [1] was -0.59%; in test [2], 77.7%; in test [3] it was 56.2%; in test [4], 29.4%; in test [5] it was 49.8%.
`CC(C)(C)c1cc(NC(=O)Nc2ccc(Oc3ccncc3)cc2)no1`: the inhibition came to 0.69% in test [1]; 84.9% in test [2]; 41.9% in test [3]; 15.2% in test [4]; 16.8% in test [5].
For `COCCNC(=O)c1ccc2c(c1)nc(-c1cnc(-c3ccc(Cl)cc3)[nH]1)n2CCOC`, in that order: 1.13%, 5.79%, 4.53%, 6.98% and 18.7%.
